Data on one substance can be found in patent publication US7235263B2, “Processes for controlling microbial organic compound production” (Kimberly-Clark Worldwide, Inc., priority 2001, dated 2007).

In assay [1] the test system is interleukin-1 alpha (IL-1a). The assay is described as follows: IL-1a release by EPIOCULAR skin culture challenged with sample. The format is cell-based, human. The settings on record: Table 5, 6 hours. The text has this:
In order to evaluate the amount of skin irritation by various samples prepared in the Examples, a human skin culture was selected to model the response of the human epidermis to treated and untreated bacterial metabolized urine:TSB mixture. The tissue model selected was an EPIOCULAR Tissue Model (OCL-200 propagated without hydrocortisone), and was purchased from MatTek Corporation (Ashland, Mass.). This model consists of normal, human-derived epidermal keratinocytes, which have been cultured to form a stratified, squamous epithelium similar to that found in the cornea. The epidermal cells, which are cultured on specially prepared cell culture inserts using a serum free medium, differentiate to form a multi-layered structures which closely parallel the corneal epithelium. Experiments using this skin culture were conducted in six parallel wells. Each well contained one milliliter of pre-warmed media that was the same as the model skin culture media. The plates were then incubated in a 37° C., 5% carbon dioxide atmosphere for thirty minutes. […] The response of the skin culture to test the compositions/control and the insult solution is determined by measuring the amount of interleukin-1 alpha (IL-1a) and/or interleukin-8 (IL-8). IL-1a and IL-8 were quantified using an Interleukin-1 alpha or Interleukin-8 Quantikine Kit available from R&D Systems (Minneapolis, Minn.).

Assay [2] relates to E. coli (ATCC 8739). As to the kind of experiment: Bacterial yield of facultatively grown E. coli in urine:TSB. The settings on record: Table 6, facultative E. coli in urine:TSB. It is filed as cell-based. As to the method:
Proteus mirabilis (ATCC 29906) were recovered from frozen state by growing the appropriate bacterial coated MicroBank Bead (Pro Lab, Austin Tex.) in 10 mL trypticase soy broth (TSB, Difco, Ann Arbor, Mich.) in a 15 mL sterile loosely tightened screw capped conical tube overnight at 37° C. The tube was held stationary. (E. coli (ATCC 8739), utilized in Example 6 herein, was recovered using the same procedure described herein for Proteus mirabilis). Upon observation of turbidity, the bacterial suspension was checked for purity by isolation plate and Gram stain. Once determined that the isolate was Proteus mirabilis (or E. coli in Example 6), a colony from the isolation plate was transferred to 10 mL of TSB in a 15 mL sterile screw capped conical tube and incubated overnight at 37° C. under facultative conditions. Samples of bacterial suspension resulting from this overnight TSB culture were used to initiate all experiments utilizing Proteus mirabilis bacteria (or E. coli in Example 6).
The four samples were prepared identically to the four samples in Example 5 with the exception that facultatively grown E. coli was utilized as the bacteria in place of the Proteus mirabilis bacteria. The process for growing facultatively grown E. coli is set forth in Example 1.
After incubation, each sample was analyzed for EPIOCULAR viability and bacterial cell count as set forth in Example 1. […]

Assay [3] has as its system Proteus mirabilis (ATCC 29906). As to the kind of experiment: Ammonia production by facultatively grown Proteus mirabilis in urine:TSB (ammonia probe). It is filed as cell-based. Conditions: for % Reduction of Ammonia: vs urine:TSB:facultative without mannitol peroxide. The method, then:
Proteus mirabilis was taken from a TSB culture (described in (1) above) and grown under various conditions for use in the Examples. For bacteria to be grown under aerobic conditions, 50 microliters of Proteus mirabilis was taken from a TSB culture prepared as described above and inoculated into a 50 mL volume of a freshly made 9:1 (by volume) pooled adult female urine:TSB mixture into a 250 mL shake flask. This mixture was rotated at 250 rpm at 37° C. overnight to grow the bacteria. For bacteria to be grown under facultative conditions, 10 microliters of Proteus mirabilis was taken from a TSB culture prepared as described above and inoculated into a 10 mL volume of a freshly made 9:1 (by volume) pooled adult female urine:TSB mixture into a 15 mL tube. The tube was loosely fitted with a screw cap, and held stationary at 37° C. overnight to grow the bacteria. For bacteria to be grown under anaerobic conditions, 10 microliters of Proteus mirabilis was taken from a TSB culture prepared as described above and inoculated into a 10 mL volume of a freshly made 9:1 (by volume) pooled adult female urine:TSB mixture into a 15 mL conical tube. The tube was purged with nitrogen and a screw cap tightly closed, and then was held stationary overnight at 37° C. to grow the bacteria.
(§1) Upon completion of the respective incubation periods of the samples, optical density measurements of each sample were taken as described above and ammonia production of the growth solutions was measured using an ammonia combination probe (Beckman, Fullerton, Calif.) by record mV using an Orion pH meter (Orion, Boston, Mass.). Orion ammonia standards (Orion) were used to calibrate the instrument.
In this Example, six different samples were prepared for analysis. The first sample comprised a urine:TSB mixture that was prepared in the same manner as that described in Example 1. […] The tube was loosely fitted with a screw cap, and held stationary at 37° C. overnight to grow the bacteria. […] The fifth sample comprising urine:TSB:Proteus mirabilis (facultatively grown) was prepared in the same manner as that described in Example 1.

In assay [4] the test system is E. coli (ATCC 8739). As to the kind of experiment: Ammonia in urine:TSB with facultatively grown E. coli. It is filed as cell-based. Conditions: Table 6, facultative E. coli. The method, then: as §1, with “instrument. The four samples were prepared identically to the four samples in Example 5 with the exception that facultatively grown E. coli was utilized as the bacteria in place of the Proteus mirabilis bacteria. The process for growing facultatively grown E. coli is set forth in Example 1.” for “instrument.”

[5] abbreviates: Table 4, 5% mannitol peroxide, facultative.
[6] abbreviates: Table 4, 10% mannitol peroxide, facultative.
The mark [7] stands for this setting: Table 7, 5% mannitol peroxide, facultative.

For the substance mannitol peroxide, the IL-1a came to 48.12 ± 8.93 pg/mL in assay [1] (facultative Proteus mirabilis grown with 5% mannitol peroxide) and 15.26 ± 12.80 pg/mL in assay [1] (facultative Proteus mirabilis grown with 10% mannitol peroxide). In addition, the “Bacterial Yields” value in the assay with E. coli (ATCC 8739) [2] (5% MP) is on record as 2.14E+9 CFU/mL; in the assay with E. coli (ATCC 8739) [2] (10% MP), 4.98E+9 CFU/mL. The Ammonia/Cell in assay [3] (Table 3, 5% (w/v) mannitol peroxide, facultative bacteria) was determined as 1.6 ppm/CFU E+8; in assay [3] (Table 3, 10% mannitol peroxide, facultative bacteria), 0.01 ppm/CFU E+8; in assay [3] (setting [5]), 1.6 ppm/CFU E+8; in assay [3] (setting [6]) it was 0.01 ppm/CFU E+8; in assay [3] (setting [7]), 43.84 ppm/10E8CFU. Also, the “Ammonia Produced (n = 3)” value in assay [3] (Table 3, 5% (w/v) mannitol peroxide, urine:TSB, facultative bacteria) is on record as 34.5 ± 12.6 ppm; in assay [3] (Table 3, 10% mannitol peroxide, urine:TSB, facultative bacteria), 13.9 ± 0.3 ppm; in assay [3] (setting [7]), 434.5 ± 7.5 ppm. Besides, the “Ammonia (n = 3)” value is 34.5 ± 12.6 ppm in assay [3] (setting [5]) and 13.9 ± 0.3 ppm in assay [3] (setting [6]). Besides, the “% Reduction of Ammonia” value in assay [3] (Table 4, 5% mannitol peroxide) is 53.6%; in assay [3] (Table 4, 10% mannitol peroxide), 98.5%. The values for the Ammonia in the assay on E. coli (ATCC 8739) [4] (5% MP) and in the assay on E. coli (ATCC 8739) [4] (10% MP) were 12.46 ppm and 14.04 ppm, respectively.
